Experimental findings from patent EP0025288A1, “Derivatives of monic acid, processes for their preparation, compositions containing them and their preparation” (priority 1979, dated 1981) are described below.

The structures appear in SMILES notation. Converted amounts (≈) assume the structure as drawn.

Common to all, as to assay type: cell-based
Assay [1] concerns E coli E1. Nature of the assay: MIC, veterinary bacteria. The following applies: veterinary bacteria (Table 2), read-out: MIC.
For assay [2], the system named is S typhimurium S18. Briefly: MIC, veterinary bacteria. The following applies: veterinary bacteria (Table 2), read-out: MIC.
The subject of assay [3] is Bord bronchiseptica BO8. Briefly: MIC, veterinary bacteria. The following applies: veterinary bacteria (Table 2), read-out: MIC.
Assay [4] has as its system Past multocida PA1. Briefly: MIC, veterinary bacteria. The following applies: veterinary bacteria (Table 2), read-out: MIC.
The test system of assay [5] is Past Haemolytica PA5. Nature of the assay: MIC, veterinary bacteria. To be noted: veterinary bacteria (Table 2), read-out: MIC.
Assay [6] has as its system Erysipelothrix rhusiopathiae NCTC 8163. Briefly: MIC, veterinary bacteria. The following applies: NCTC8163, veterinary bacteria (Table 2), read-out: MIC.
Assay [7] deals with Staph aureus B4 (pen resis). Briefly: MIC, veterinary bacteria. To be noted: Staphylococcus aureus, veterinary bacteria (Table 2), read-out: MIC.
Assay [8] has as its system Staph aureus Oxford. Nature of the assay: MIC, veterinary bacteria. To be noted: Staphylococcus aureus, veterinary bacteria (Table 2), read-out: MIC.
Assay [9] relates to Strep dysgalaciae SPD1. Briefly: MIC, veterinary bacteria. To be noted: veterinary bacteria (Table 2), read-out: MIC.
The test system of assay [10] is M. suipneumoniae TAM 6N. Briefly: MIC, anti-mycoplasmal, Friis broth solidified with 0.9% agarose. To be noted: Mesomycoplasma hyopneumoniae, TAM6N, 144 h, inoculum 10^3 to 10^5 C.F.U., 6 days incubation at 37°C, read-out: in vitro MIC.
In assay [11] the test system is M. bovigenitalium ATCC 14173. The description is as above. To be noted: 144 h, inoculum 10^3 to 10^5 C.F.U., 6 days incubation at 37°C, read-out: in vitro MIC.

Usually MIC stands for the lowest concentration found to suppress growth. For `CC(=CC(=O)OCCCC(=O)c1ccccc1)CC1OCC(CC2OC2C(C)C(C)O)C(O)C1O` (centres unmarked) [Example 5, 4-Phenylbutan-4-onyl monate A], the minimum inhibitory concentration (MIC) in assay [1] worked out at 80 µg/mL (≈ 163 µM); in assay [2], 80 µg/mL (≈ 163 µM); in assay [3], 40 µg/mL (≈ 81.5 µM); in assay [4], 1.25 µg/mL (≈ 2.55 µM); in [5], 10 µg/mL (≈ 20.4 µM); in [6], 40 µg/mL (≈ 81.5 µM). The MIC came out at 0.156 µg/mL (≈ 0.318 µM) in assay [7]; 0.156 µg/mL (≈ 0.318 µM) in [8]; 0.07 µg/mL (≈ 0.143 µM) in assay [9]; 0.5 µg/mL (≈ 1.02 µM) in [10]; 0.025 µg/mL (≈ 0.051 µM) in assay [11].
